Patent publication US20240252658A1, “BIFUNCTIONAL PROTAC-TYPE COMPOUNDS TARGETING PXR, METHOD FOR PREPARING SAME AND THERAPEUTIC USE THEREOF” (Centre National de la Recherche Scientifique, priority 2021, published 2024)

Columns and labels:
PXR [1] = assay: CYP3A4 mRNA expression by RT-qPCR in LS174T cells; format: cell-based; details: 5 μM, 48 h, with rifampicin 5 μM
Procedure: . After lysis of the cells and purification of the total RNAs (Qiagen RNAeasy), the complementary DNAs were prepared (SuperScript II in the presence of random primers of 6 nucleotides, Invitrogen). The expression of CYP3A4 mRNA and RPLO and actin housekeeping genes was measured by RT-qPCR on an LC480 apparatus (Roche) in the presence of SyberGreen (Millipore). The relative expression levels were calculated according to the RQ=Relative quantification=2-ΔΔCt method, the untreated cells serving as a calibrator set to 1. […]

[2] = target: T1, PXR ligand binding domain (LBD) (Homo sapiens, UniProt O75469); assay: LanthaScreen TR-FRET PXR competitive binding assay; details: displacement of fluorescent reference ligand, 1:30 hours at room temperature, read-out: affinity for PXR
T1 construct: purchased Invitrogen
T1 sequence (O75469 146-433 limits assumed): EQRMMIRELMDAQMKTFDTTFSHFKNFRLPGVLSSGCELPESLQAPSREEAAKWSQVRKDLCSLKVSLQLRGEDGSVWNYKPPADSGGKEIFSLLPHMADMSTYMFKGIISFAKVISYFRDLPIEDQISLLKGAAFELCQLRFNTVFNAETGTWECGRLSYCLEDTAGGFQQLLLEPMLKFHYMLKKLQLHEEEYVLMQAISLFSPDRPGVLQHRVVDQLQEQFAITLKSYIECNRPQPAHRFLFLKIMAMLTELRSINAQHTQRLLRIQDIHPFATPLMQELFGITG
Procedure: The molecules were incubated for 1:30 hours at room temperature with the PXR LBD in the presence of a fluorescent reference ligand. The displacement of the fluorescent ligand caused by the prePROTAC or the PXR SR12813 ligand was measured by reading emissions at 520 nm and 495 nm after excitation at 337 nm on a PHERA-Star apparatus (BMG LABTECH).

HT29 cells [3] = assay: Survival and chemoresistance of cancer stem cells in colon cancer cell lines; format: cell-based; details: 5 μM for 2 days, 5-FU and SN38 (Folfiri)
Procedure: (§1) The effects of the PROTACs on the survival and self-renewal of colic cancer stem cells were studied in vitro on the HT29 line or cancer cells isolated from patients (CRC1). The cells were treated with or without 5 μM PROTACs for 48 h before being analyzed: Aldefluor marking, enzymatic activity preferentially present in cancer stem cells (FIG. 10A); formation of tumorspheres under aseric and non-adherent conditions (FIG. 10B), and finally resistance to chemotherapy (FIGS. […] and 10D).
(§2) The tumorspheres with a diameter of more than 50 μM were counted 10 days after treatment and culturing of 200 cells per well (previously treated with poly2Hema in order to prevent any cell adhesion) in 100 μL of depleted BCS medium. These culture conditions allow only the survival of cancer stem cells. FIGS. 10C and 10D show the effects of the PROTACs JMV7048 and JMV7965 on survival (10C) and the ability to form tumorspheres (10D) of the HT29 cells maintained in the presence of different concentrations of 5-FU and SN38 (Folfiri 1X=50 μg 5-FU+500 nM SN38) and cultured in 100 μL of depleted BCS medium in dishes pretreated with poly2Hema in order to prevent any cell adhesion. The tumorspheres with a diameter of more than 50 μM were counted 10 days after seeding 200 cells/well.

LS174T = assay: Cell viability, Sulforhodamine B, LS174T; format: cell-based; details: LS174T line, increasing concentrations, 72 h
Procedure: (§3) The effect of PROTACs on cell viability has been tested on various lines CRC1, HT29 and LS174T. The cells were incubated in the presence of increasing concentrations of molecules for 72 h before being fixed and marked by Sulforhodamine B (Sigma). After washing and lysis of the cells, the incorporated colorant released by the cells is directly proportional to the cell biomass. It is measured at […] by a 96-well plate spectrophotometer (Tecan). The signal obtained for the untreated cells is set at 100%.

PXR [4] = assay: CYP3A4 protein expression by western blotting in LS174T cells; format: cell-based; set-up: dose or concentration left out as unconfirmed; details: 48 h
Procedure: The LS174T cells were treated for 48 h with […] JMV7048 in the presence or absence of rifampicin (PXR ligand) at […] final. After lysis of the cells (RIPA+antiproteases), the proteins were purified and assayed before being deposited (90 μg) on 10% SDS-PAGE gel. […] The intensities of the signals were measured by a camera (BioRad MP Touch).

HT29 cells [5] = assay: Tumorsphere formation (Sphere Forming Cells), HT29; format: cell-based; details: 5 μM, 48 h, spheres counted after 10 days
Procedure: as §1, §2

CRC1 = assay: Cell viability, Sulforhodamine B, CRC1; format: cell-based; details: CRC1 protoculture, increasing concentrations, 72 h
Procedure: as §3

PXR protein [6] = target: T2, PXR protein (Homo sapiens, UniProt O75469); assay: PXR degradation in LS174T cells by in vitro western blotting; format: cell-based; set-up: endogenous in cells; host or cells: LS174T; details: for expression level of the PXR protein: 5 μM, 24 h of treatment
T2 sequence (O75469 1-434): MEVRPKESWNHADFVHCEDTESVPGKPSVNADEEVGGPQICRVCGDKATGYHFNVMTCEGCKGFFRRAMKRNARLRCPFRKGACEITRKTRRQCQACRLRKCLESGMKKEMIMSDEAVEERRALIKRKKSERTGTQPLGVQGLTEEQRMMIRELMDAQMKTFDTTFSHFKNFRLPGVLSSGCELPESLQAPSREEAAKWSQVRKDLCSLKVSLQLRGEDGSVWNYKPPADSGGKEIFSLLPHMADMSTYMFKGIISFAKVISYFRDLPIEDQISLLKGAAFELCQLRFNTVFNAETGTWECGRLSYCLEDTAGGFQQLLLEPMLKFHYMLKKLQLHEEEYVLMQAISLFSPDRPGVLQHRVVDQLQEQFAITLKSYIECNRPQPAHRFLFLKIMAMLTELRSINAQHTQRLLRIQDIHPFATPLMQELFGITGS
Procedure: The effect of the PROTACs on the expression level of the PXR protein was studied by western blotting. The LS174T cells were […] in the absence or presence of 50 nM of an siRNA targeting PXR (siPXR: NR112 Silencer, Thermofischer) or treated by the PROTACs. After lysis of the cells (RIPA+antiproteases), the proteins were purified and assayed before being deposited ([…]) on 10% SDS-PAGE gel. […] The intensities of the signals were measured by a camera (BioRad MP Touch). […] FIGS. 6D and 6E illustrate the effect of JMV7048 on the expression level of PXR based on the treatment time (maximum effect reached after 3 h of treatment) and the concentration used (decrease dependent on the dose, with a maximum effect observed from 500 nM).

CRC1 cells = assay: Aldefluor marking of cancer stem cells, CRC1; format: cell-based; details: 5 μM, 48 h, compared to untreated cells
Procedure: as §1, §2

PXR protein [7] = target: T2, PXR protein; assay: Importance of the proteasome pathway for PXR degradation, western blotting in LS174T cells; format: cell-based; set-up: endogenous in cells; host or cells: LS174T; details: 24 hours
Procedure: The involvement of the proteasome pathway in the effects of PROTACs on the expression level of the PXR protein was studied by western blotting. The LS174T cells were treated for 24 hours with JMV7048 in the presence or absence of the […] (MLN4924) or the proteasome inhibitor (Bortezomib).

HT29 cells [8] = assay: Cell viability, Sulforhodamine B, HT29; format: cell-based; details: increasing concentrations, 72 h
Procedure: as §3

SMILES: Cc1cc(C)c(S(=O)(=O)Nc2ccc3c(c2)nc(CCCCCCCN)n3Cc2ccccc2)c(C)c1 [JMV6944, N-[2-(7-aminoheptyl)-1-benzyl-1H-1,3-benzodiazol-5-yl]-2,4,6-trimethylbenzene-1-sulfonamide]
- effect on expression of CYP3A4 mRNA induced by rifampicin (PXR [1]): additive effect on the expression of CYP3A4 mRNA
- Kd [2]: 18.4 nM

SMILES: Cc1cc(C)c(S(=O)(=O)Nc2ccc3c(c2)nc(CCCCCCCNC(=O)CCCCCN2CCN(c4ccc5c(c4)C(=O)N(C4CCC(=O)NC4=O)C5=O)CC2)n3Cc2ccccc2)c(C)c1 (centres unmarked) [JMV7048]
- effect on expression of CYP3A4 mRNA induced by rifampicin (PXR [1]): significantly reduce the induction of CYP3A4
- survival and chemoresistance of stem cells (HT29 cells [3]): significantly reduces the survival and chemoresistance of stem cells
- toxicity (cell viability) (LS174T): absence of toxicity
- effect on induction of the CYP3A4 enzyme mediated by rifampicin (PXR [4]): reduce the induction of the CYP3A4 enzyme
- number of cells capable of surviving anoikis and forming tumorspheres (Sphere Forming Cells) (HT29 cells [5]): significantly reduce the number of HT29 cells
- cell viability (CRC1): does not affect the viability
- treatment time at which maximum effect on PXR expression level is reached (PXR protein [6]): 3 h
- expression level of the PXR protein (PXR protein [6]): significantly reduce the expression level of the PXR protein
- concentration from which maximum effect on PXR expression level is observed (PXR protein [6]; decrease dependent on the dose): ≥ 500 nM
- percentage of ALDH-positive cells (CRC1 cells): significantly reduce the percentage of ALDH-positive cells
- decrease in PXR expression level with MLN4924 or Bortezomib (PXR protein [7]; with or without MLN4924 or Bortezomib): reverted by the CRBN ubiquitin ligase inhibitors (MLN4924, FIG. 8A) or by an inhibitor of the 26S proteasome
- cell viability (HT29 cells [8]): does not affect the viability

SMILES: Cc1cc(C)c(S(=O)(=O)Nc2ccc3c(c2)nc(CCCCCCCNC(=O)CCCCCN2CCN(C4CCC5C(=O)N(C6CCC(=O)N(C)C6=O)C(=O)C5C4)CC2)n3Cc2ccccc2)c(C)c1 (centres unmarked) [JMV7159]
- effect on expression of CYP3A4 mRNA induced by rifampicin (PXR [1]): additive effect on the expression of CYP3A4 mRNA
- expression level of the PXR protein (PXR protein [7]): does not cause a decrease in the expression level of PXR

SMILES: Cc1cc(C)c(S(=O)(=O)Nc2ccc3c(c2)nc(CCCCCCCNC(=O)CCCCCCN2CCN(c4ccc5c(c4)C(=O)N(C4CCC(=O)NC4=O)C5=O)CC2)n3Cc2ccccc2)c(C)c1 (centres unmarked) [JMV7505]
- toxicity (cell viability) (LS174T): absence of toxicity
- expression level of the PXR protein (PXR protein [6]): significantly reduce the expression level of the PXR protein
- percentage of ALDH-positive cells (CRC1 cells): significantly reduce the percentage of ALDH-positive cells

SMILES: Cc1cc(C)c(S(=O)(=O)Nc2ccc3c(c2)nc(CCCCCCCNC(=O)CCCCCCCN2CCN(c4ccc5c(c4)C(=O)N(C4CCC(=O)NC4=O)C5=O)CC2)n3Cc2ccccc2)c(C)c1 (centres unmarked) [JMV7506]
- expression level of the PXR protein (PXR protein [6]): significantly reduce the expression level of the PXR protein
- percentage of ALDH-positive cells (CRC1 cells): significantly reduce the percentage of ALDH-positive cells

SMILES: Cc1cc(C)c(S(=O)(=O)Nc2ccc3c(c2)nc(CCCCCCCNC(=O)CCCCCCN2CCN(c4ccc(C(=O)NC5CCC(=O)NC5=O)cc4)CC2)n3Cc2ccccc2)c(C)c1 (centres unmarked) [JMV7605]
- toxicity (cell viability) (LS174T): absence of toxicity
- expression level of the PXR protein (PXR protein [6]): significantly reduce the expression level of the PXR protein

SMILES: Cc1cc(C)c(S(=O)(=O)Nc2ccc3c(c2)nc(CCCCCCCNC(=O)CN2CCC(CN4CCN(c5ccc6c(c5)C(=O)N(C5CCC(=O)NC5=O)C6=O)CC4)CC2)n3Cc2ccccc2)c(C)c1 (centres unmarked) [JMV7965]
- effect on expression of CYP3A4 mRNA induced by rifampicin (PXR [1]): significantly reduce the induction of CYP3A4
- survival and chemoresistance of stem cells (HT29 cells [3]): significantly reduces the survival and chemoresistance of stem cells
- effect on induction of the CYP3A4 enzyme mediated by rifampicin (PXR [4]): reduce the induction of the CYP3A4 enzyme
- number of cells capable of surviving anoikis and forming tumorspheres (Sphere Forming Cells) (HT29 cells [5]): significantly reduce the number of HT29 cells
- expression level of the PXR protein (PXR protein [6]): significantly reduce the expression level of the PXR protein
- percentage of ALDH-positive cells (CRC1 cells): significantly reduce the percentage of ALDH-positive cells
